“Also recorded” adds a separate entry of the source.
What was measured:
[1] = tested on: OVA-specific IgG antibody titer; experiment: Microneedle (OVA) application + transdermal adjuvant application; OVA-specific IgG antibody titer by ELISA; type: in vivo, hairless rats; conditions: for IgG antibody titer / adjuvant effect (FIG. 5): Example 5; for IgG antibody titer / adjuvant effect (FIG. 5) / IgG antibody titer / adjuvant effect (FIG. 2): 120 μL stock solution, 6 hr after OVA microneedles; for IgG antibody titer / adjuvant effect (FIG. 5) / IgG antibody titer / adjuvant effect (FIG. 1) / IgG antibody titer / adjuvant effect (FIG. 2): titers after 5 weeks; for IgG antibody titer / adjuvant effect (FIG. 5) / IgG antibody titer / adjuvant effect (FIG. 1): compared to OVA alone; for IgG antibody titer / adjuvant effect (FIG. 1): Example 1, 120 μL stock solution on patch-test tape for 6 hr after OVA microneedles, dosing weeks 0, 2, 4; for IgG antibody titer / adjuvant effect (FIG. 2): Example 3, purified water control; for Adjuvant effect against anti-OVA IgG: titers after 4 weeks
skin = tested on: skin; set-up: Skin irritation score: key to the marks not given beside the values; conditions: rat, in vivo
[2] = tested on: OVA-specific IgG antibody titer; experiment: Microneedle (OVA) application + transdermal adjuvant application; OVA-specific IgG antibody titer by ELISA; type: in vivo, hairless rats; conditions: Example 4
Method: (§1) Regarding (i) and (ii), OVA 20 μg/[…] (saline) was intradermally administered.

[3] = tested on: OVA-specific IgG antibody titer; experiment: Intradermic injection (OVA) application + glycerin application; OVA-specific IgG antibody titer by ELISA; type: in vivo, hairless rats; conditions: Example 4; intradermal OVA 20 μg + glycerin co-used; after two weeks
Method: as §1

In the case of `CCCCCCCC/C=C\CCCCCCCC(=O)OCC(O)CO` (stereo not shown) [GMO, monoglyceryl oleate], the “IgG antibody titer / adjuvant effect (FIG. 5)” value [1] is reported as “adjuvant effect similar to that of low molecules such as glycerin”.

In the case of `CC(O)CO` (stereo not shown) [PG, propylene glycol], the “IgG antibody titer / adjuvant effect (FIG. 5)” value [1] is reported as “strong adjuvant effect”.

With `CCO` [ethanol] the Skin irritation observation (skin) was “significant skin irritation accompanied by necrosis”, the Skin irritation score (skin) was “+++” and the “IgG antibody titer / adjuvant effect (FIG. 1)” value [1] was “high adjuvant effect”.

`OCC(O)CO` [glycerin] was tested, and the “Adjuvant effect (FIG. 3)” value ([2]; OVA by microneedles + glycerin 120 μL 6 hr, titers after 4 weeks, compared to intradermal injection of OVA) was “exhibited more clearly by the microneedle application”, the “IgG antibody titer time course (FIG. 4)” value ([2]; OVA microneedles with concomitant glycerin, from 2 weeks) was “increase the IgG antibody titer was observed” and the “IgG antibody (FIG. 4)” value [3] was “no IgG antibody was detected”. The “IgG antibody titer / adjuvant effect (FIG. 1)” value [1] was “high adjuvant effect”, the “IgG antibody titer / adjuvant effect (FIG. 2)” value [1] was “adjuvant effect of the glycerin was confirmed” and the “IgG antibody titer / adjuvant effect (FIG. 5)” value [1] was “strong adjuvant effect”. For the same compound, the “Adjuvant effect against anti-OVA IgG” value ([1]; Example 6, glycerin concentration 25%, 120 μL 6 hr) was “none”, the “Adjuvant effect against anti-OVA IgG” value ([1]; Example 6, glycerin concentration 75%, 120 μL 6 hr) was “excellent adjuvant effect was confirmed” and the “Adjuvant effect against anti-OVA IgG” value ([1]; Example 6, glycerin concentration 75%, 120 μL 6 hr, listed as Glycerin) was “present”. For the same compound, the “Adjuvant effect against anti-OVA IgG” value ([1]; Example 7, 100% glycerin applied 10 min after antigen administration by microneedles, 6 hr) was “apparent increase in the IgG antibody titer; also recorded: high IgG antibody titer”, the “Adjuvant effect against anti-OVA IgG” value ([1]; Example 7, 100% glycerin applied 10 min after antigen administration by microneedles, 6 hr, listed as Glycerin) was “present” and the “Adjuvant effect against anti-OVA IgG” value ([1]; Example 7, simultaneously with antigen, mixture of OVA/pullulan/41% glycerin on microneedles) was “no adjuvant effect was observed”. For the same compound, the “Adjuvant effect against anti-OVA IgG” value ([1]; Example 7, simultaneously with antigen, mixture of OVA/pullulan/41% glycerin on microneedles, listed as Glycerin) was “none” and the Adjuvant effect ([1]; glycerin concentration 100 wt %) was “particularly excellent adjuvant effect”.

With `CC(C)=CCC/C(C)=C/CC/C(C)=C/CC/C=C(\C)CC/C=C(\C)CCC=C(C)C` [squalene, reference compound] the Skin irritation (skin) was “no skin irritation” and the “IgG antibody titer / adjuvant effect (FIG. 2)” value [1] was “low IgG antibody titer similar to the control”.

`CC(=O)OCC(COC(C)=O)OC(C)=O` [triacetin] was tested, and the “IgG antibody titer / adjuvant effect (FIG. 5)” value [1] was “strong adjuvant effect”.

Reference: patent US20140037694A1, “ADJUVANT FOR TRANSDERMAL OR TRANSMUCOSAL ADMINISTRATION AND PHARMACEUTICAL PREPARATION CONTAINING SAME” (HISAMITSU PHARMACEUTICAL CO., INC., priority 2011, published 2014)
